Reference: patent US5599904A, “Chimeric steroid hormone superfamily receptor proteins” (priority 1992, dated 1997)

Assays:
[1] = molecular target: T1, chimeric receptor hRGR (human retinoic acid receptor with hGR DNA-binding domain) (Homo sapiens, UniProt P10276, INS60IETQSSSSEEIVPSPPSPPPLPRPPKLCLVCSDEASGCHYGVLTCGSCKVFFKRAVEGQHNYLCAGRNDCIIDKIRRKNCPACRYRKCLQAGMNLES); test: Functional ligand identification assay: CAT induction in CV-1 cells cotransfected with pRShRGR and MTV-CAT; type: cell-based; settings: for Induction of CAT activity of the hybrid receptor (in words): pRShRGR + MTV-CAT, FIG. 2B at 100 nM, FIG. 3A increasing concentrations; for Induction of CAT activity of the hybrid receptor by natural and synthetic non-retinoid ligands: pRShRGR + pMTVCAT, single 1 μM dose (FIG. 3A legend)
T1 construct: expressed in transfected cells; host or cells: CV-1 (African Green monkey kidney) cells, cotransfected with pRShRGR and pMTVCAT
T1 sequence (P10276 with tags, fused parts or gaps isoform P10276-3 INS60IETQSSSSEEIVPSPPSPPPLPRPPKLCLVCSDEASGCHYGVLTCGSCKVFFKRAVEGQHNYLCAGRNDCIIDKIRRKNCPACRYRKCLQAGMNLES): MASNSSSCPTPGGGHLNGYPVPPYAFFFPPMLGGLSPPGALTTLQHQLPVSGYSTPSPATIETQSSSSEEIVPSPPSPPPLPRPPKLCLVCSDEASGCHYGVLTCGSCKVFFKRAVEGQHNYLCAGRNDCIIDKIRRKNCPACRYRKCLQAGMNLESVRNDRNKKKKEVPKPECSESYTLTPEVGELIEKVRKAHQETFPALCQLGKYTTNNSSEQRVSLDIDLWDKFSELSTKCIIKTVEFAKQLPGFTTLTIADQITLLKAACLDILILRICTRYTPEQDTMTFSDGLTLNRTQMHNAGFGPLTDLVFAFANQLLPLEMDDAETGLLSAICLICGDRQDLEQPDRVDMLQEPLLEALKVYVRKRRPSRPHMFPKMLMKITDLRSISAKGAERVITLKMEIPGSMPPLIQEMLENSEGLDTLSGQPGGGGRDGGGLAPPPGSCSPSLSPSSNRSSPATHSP
Description: Since the ligand for the gene product of phRAR1 was unknown, it was desirable to develop a quick and sensitive assay to reveal its identity. […] This chimera recognizes the glucocorticoid responsive element of the MMTV-LTR but stimulates transcription in an estrogen-dependent fashion (see Green, et al., (1987)). This led us to wonder if a general domain-swapping strategy could be exploited to identify the ligand-binding properties of a novel hormone receptor. To test this approach we first substituted the DNA-binding domain of the phRAR1 gene product with the well described DNA-binding domain from the hGR (FIG. 2A). (This chimeric construction, when expressed in suitable host cells, produces a hybrid receptor protein whose ligand-binding domain region must bind with a functional exogenous ligand before the ligand/receptor complex can bind to a GRE, thereby activating a glucocorticoid inducible promoter.)
To assay for the presence of a functional ligand the chimeric receptor gene was transfected into suitable host cells along with a suitable GRE linked reporter gene. CV-1 cells were used for the assay along with a MMTV-CAT reporter gene. (MMTV-CAT is carried on reporter plasmid, GM-CAT, which has been deposited with the American Type Culture Collection for patent purposes; see the section of this specification labeled, "Deposits"). […] For example, the growth hormone promoter can be functionally linked to the bacterial CAT gene. Since the growth hormone promoter contains a thyroid responsive transcription element, such a reporter plasmid can be used to assay hybrid thyroid receptor proteins. See the subheading: "Construction of Reporter and Expression Plasmids" in this specification. (Since mineralocorticoid receptors can activate GRE's, a reporter plasmid such as GM-CAT can be used to assay hybrid mineralocorticoid receptor proteins.)
Returning to the functional ligand identification assay, the transfected cells were then systematically challenged with a battery of candidate ligands and induction monitored by changes in CAT activity.
(§1) FIGS. 2A and 2B. 2A, Construction of the chimeric receptor hRGR. The domain-structure of the various constructions are shown schematically, the numbers correspond to the amino acid positions of each domain. The DNA-binding domains are represented by "DNA" and the ligand-binding domains by their respective inducers. The Nor1 and Xho1 sites created by site-directed mutagenesis to permit the exchange of the DNA-binding domains between receptors are indicated.
(§2) Methods. […] The mutant receptors were then transferred to the expression vector pRS (see Giguere, et al., (1986), and the Not1/Xho1 restriction fragment of pRShGRNX containing the hGR DNA-binding domain was introduced into pRShRnx between the Not1 and Xho1 sites to create pRShRGR. B, Cell transfection and CAT assay. The recombinant DNA constructs (5 μg each) were introduced into CV-1 cells by calcium phosphate coprecipitation (see Wigler, et al., (1979)). The cells were then cultured for two days in serum free media supplemented with Nutridoma (Boehringer Mannheim) in presence or absence of inducers. CV-1 cells were then prepared for CAT assays as described by Gorman, et al. (1982) and the assays performed for 3 h using 25 μg of protein extract. All experiments with retinol were conducted in subdued light.
(§3) FIGS. 3A and 3B. 3A, Dose-response to retinoids. […] The levels of CAT activity were plotted as percentages of the maximal response observed in this experiment. […] The values represent the mean of quadruplicate determinations.
Methods. 3A, CV-1 cell cotransfections and CAT assays were performed as described in FIG. 2.

[2] = test system: human glucocorticoid receptor (hGR); test: CAT induction in CV-1 cells cotransfected with pRShGR and MTV-CAT; type: cell-based; settings: pRShGR + MTVCAT, 100 nM, 2 days
Description: as §1, §2

[3] = test system: human retinoic acid receptor (hRARα); test: CAT induction in CV-1 cells cotransfected with pRShRR and MTV-CAT; type: cell-based; settings: pRShRR + MTVCAT, 100 nM, 2 days
Description: as §1, §2

[4] = test system: mutated human retinoic acid receptor with Not1 and Xho1 sites (pRShRRNX); test: CAT induction in CV-1 cells cotransfected with parent vector pRShRRNX and MTV-CAT; type: cell-based; settings: pRShRRNX + MTVCAT, 100 nM, 2 days
Description: as §1, §2

[5] = molecular target: T2, phRAR1 gene product (human retinoic acid receptor) (Homo sapiens, UniProt P10276); test: 3H-retinoic acid binding to cytosol extracts of COS-1 cells transfected with pRShRR; settings: for Competition of 3H-retinoic acid binding: cytosol of transfected COS-1 cells, 2×10^-8 M 3H-retinoic acid, 1000-fold excess (2×10^-5 M) competitor, 4° C., 16 h
T2 sequence (P10276 1-462): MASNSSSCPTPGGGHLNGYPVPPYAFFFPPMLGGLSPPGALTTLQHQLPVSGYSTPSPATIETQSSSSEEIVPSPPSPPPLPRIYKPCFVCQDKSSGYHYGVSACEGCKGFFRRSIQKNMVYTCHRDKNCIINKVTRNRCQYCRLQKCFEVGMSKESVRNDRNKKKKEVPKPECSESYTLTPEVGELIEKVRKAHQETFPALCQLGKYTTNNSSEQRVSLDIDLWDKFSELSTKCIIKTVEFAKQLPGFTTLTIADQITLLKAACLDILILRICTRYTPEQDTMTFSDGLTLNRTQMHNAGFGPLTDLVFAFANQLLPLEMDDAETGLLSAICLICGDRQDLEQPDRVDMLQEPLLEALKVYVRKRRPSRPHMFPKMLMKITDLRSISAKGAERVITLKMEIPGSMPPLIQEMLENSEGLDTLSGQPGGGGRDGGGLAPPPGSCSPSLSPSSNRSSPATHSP
Method: as §3
Methods. 3A, CV-1 cell cotransfections and CAT assays were performed as described in FIG. 2. […] All other products were diluted in ethanol and control cultures received 0.1% solvent (v/v) in media. Dose-response curves of retinoid treatment were performed in triplicate. 3B, Subconfluent COS-1 cells were transfected with 10 μg/dish of a control plasmid (pRS) or pRShRR by the DEAE-Dextran method (see Deans, et al., (1984)). Cells were maintained for 2 days in DMEM with 5% charcoal-treated fetal calf serum, then harvested in TNE (40 mM tris-HCl pH 7.5, 150 mM NaCl, 1 mM EDTA) and lysed by Dounce homogenization in hypotonic buffer (50 mM tris-HCl pH 7.4, 0.1 mM EDTA, 5 mM dithiothreitol,10 mM NaMoO4, 10% glycerol, 0.5 mM phenylmethylsulfonyl fluoride) and centrifuged at 100,000×g for 30 min to yield the cytosol fraction. […] Specific binding was measured by the addition of 2×10^-5 M of competitors. Reactions were carried out at 4° C. for 16 h. […] Reactions were placed on filters for 1 min and then rinsed with 5 ml of washing buffer (50 mM tris-HCl pH 7.4, 0.1 mM EDTA, 0.1% Triton X-100). Filters were dried and counted by liquid scintillation spectrophotometry.

[6] = test system: hybrid receptors with an hTRβ carboxyl terminus; test: Hybrid thyroid/glucocorticoid receptor CAT assay, hybrids with hTRβ carboxyl terminus; type: cell-based, human; settings: CV-1 cells, FIG. 9
Method: CV-1 cells were used as the receptor-deficient host cells that were transfected with expression plasmids that carry the chimeric RR/TR receptors, and reporter plasmids carrying the CAT reporter gene. […] Acetylated and non-acetylated forms of [^14 C]chloramphenicol were separated by thin layer chromatography, excised, and quantitated by liquid scintillation counting in Econofluor (DuPont) with 5% DMSO. β-galactosidase assays were performed as described by Herbomel et al. (1984). CAT activity is expressed as percent conversion divided by β-galactosidase activity.

[7] = test system: alpha thyroid hormone receptor (rTRα); settings: CV-1 cells, absence or presence of T3 (data not shown)
[8] = test system: beta thyroid hormone receptor (hTRβ); settings: CV-1 cells, absence or presence of T3 (data not shown)

Molecule: CC1=C(/C=C/C(C)=C/C=C/C(C)=C/C(=O)O)C(C)(C)CCC1 [retinoic acid]
- Induction of CAT activity of the hybrid receptor (in words) [1]: dramatic increase in CAT activity
- Induction of hGR (CAT activity) [2]: not induced
- Effect upon CAT activity using wild type gene product hRARα [3]: No effect upon CAT activity
- Effect upon CAT activity using parent vector pRShRRNX [4]: No effect upon CAT activity
- Competition of 3H-retinoic acid binding [5]: fully competed

Molecule: CC1=C(/C=C/C(C)=C/C=C/C(C)=C/CO)C(C)(C)CCC1 [retinol]
- Induction of CAT activity of the hybrid receptor (in words) [1]: weak agonist
- Competition of 3H-retinoic acid binding [5]: only partially

Molecule: C[C@H](CCCC(C)(C)O)[C@H]1CC[C@H]2[C@@H]3CC=C4C[C@@H](O)CC[C@]4(C)[C@H]3CC[C@]12C [25-OH-cholesterol]
- Induction of CAT activity of the hybrid receptor by natural and synthetic non-retinoid ligands [1]: failed to induce CAT activity

Molecule: ^3 H-retinoic acid
- Specific binding of 3H-retinoic acid by transfected cells ([5]; COS-1 cells transfected with pRShRR versus control plasmid pRS): increased capacity to specifically bind

Molecule: N[C@@H](Cc1cc(I)c(Oc2cc(I)c(O)c(I)c2)c(I)c1)C(=O)O [T4, thyroxine]
- Induction of CAT activity of the hybrid receptor by natural and synthetic non-retinoid ligands [1]: failed to induce CAT activity

Molecule: estrogen
- Induction of CAT activity of the hybrid receptor by natural and synthetic non-retinoid ligands [1]: failed to induce CAT activity

Molecule: CC(=O)[C@H]1CC[C@H]2[C@@H]3CCC4=CC(=O)CC[C@]4(C)[C@H]3CC[C@]12C [progesterone]
- Induction of CAT activity of the hybrid receptor by natural and synthetic non-retinoid ligands [1]: failed to induce CAT activity

Molecule: C[C@]12CC[C@H]3[C@@H](CCC4=CC(=O)CC[C@@]43C)[C@@H]1CC[C@@H]2O [testosterone]
- Induction of CAT activity of the hybrid receptor by natural and synthetic non-retinoid ligands [1]: failed to induce CAT activity

Molecule: C[C@]12CCC(=O)C=C1CC[C@@H]1[C@@H]2[C@@H](O)C[C@]2(C=O)[C@@H](C(=O)CO)CC[C@@H]12 [aldosterone]
- Induction of CAT activity of the hybrid receptor by natural and synthetic non-retinoid ligands [1]: failed to induce CAT activity

Molecule: C[C@]12CCC(=O)C[C@@H]1CC[C@@H]1[C@@H]2CC[C@]2(C)[C@@H](O)CC[C@@H]12 [dihydrotestosterone]
- Induction of CAT activity of the hybrid receptor by natural and synthetic non-retinoid ligands [1]: failed to induce CAT activity

Molecule: N[C@@H](Cc1cc(I)c(Oc2ccc(O)c(I)c2)c(I)c1)C(=O)O [T3, 3,5,3'-triiodo-L-thyronine]
- Activation of hybrid receptors by hormone [6]: activated
- Activation of transcription from MTV-CAT (no TRE) [7]: neither the alpha nor the beta thyroid hormone receptor activates transcription
- Activation of transcription from MTV-CAT (no TRE) [8]: neither the alpha nor the beta thyroid hormone receptor activates transcription

Molecule: C=C1CC[C@H](O)C/C1=C/C=C1\CCC[C@]2(C)[C@@H]([C@H](C)CCCC(C)C)CC[C@@H]12 [Vitamin D3]
- Induction of CAT activity of the hybrid receptor by natural and synthetic non-retinoid ligands [1]: failed to induce CAT activity
- Competition of 3H-retinoic acid binding [5]: did not compete

Molecule: CCCCCCCCCCCCCCCC(=O)OC/C=C(C)/C=C/C=C(C)/C=C/C1=C(C)CCCC1(C)C [retinyl palmitate]
- Induction of CAT activity of the hybrid receptor (in words) [1]: even weaker inducers

Molecule: C[C@]12CCC(=O)C=C1CC[C@@H]1[C@@H]2[C@@H](O)C[C@@]2(C)[C@H]1CC[C@]2(O)C(=O)CO [cortisol]
- Induction of CAT activity of the hybrid receptor by natural and synthetic non-retinoid ligands [1]: failed to induce CAT activity
